Laboratory results taken from patent US10934275B2, “IRE1 small molecule inhibitors” (Cornell University, priority 2016, dated 2021).
Counter-ions that a name gives are not always drawn.

Assays:
[1] = biological target: T1, IRE1α (Homo sapiens, UniProt O75460); assay: In vitro FRET assay (XBP1 RNA probe cleavage by IRE1α); assay type: biochemical; design: purchased SignalChem; details: SignalChem IRE1α protein 2 nM
Protocol: In vitro FRET assay was performed to evaluate the ability of select compounds to inhibit IRE1, the results of which are summarized in Table 5. To perform the in vitro FRET assay, 1× complete assay buffer (CAB; […], 50 mM sodium citrate pH 7.15, 1 mM magnesium acetate, 0.02% tween 20) was used to dilute SignalChem IRE1α protein to a final concentration of 2 nM. Selected compounds were serially diluted with DMSO in a non-binding black 384-well plate for a total of 15 ul in each well. 2 ul of the serially diluted compound or DMSO control were then added to new wells containing 98 ul of 1×CAB, for a total volume of 100 ul, 10 ul of which were then transferred to wells of a new plate. 5 ul of the diluted IRE1α was then added to each well. 5 ul of a […] XBP1 RNA probe was then added to each well. Fluorescence was then read over 30 minutes in kinetic mode (485/515 nm).
Two RNA probes were used, XBP1 wildtype (SEQ ID NO: 2) which is able to be spliced by active IRE1α or XBP1 mutant (SEQ ID NO: 3) which is unable to be spliced. Each probe contained a 5′ 6-FAM modification and a 3′ IOWA Black FQ modification.
A second FRET assay was performed to assess ATP-mediated inhibition. In this case, compounds and IRE1α were prepared and combined as discussed above, with the addition of ATP up to 1 mM final concentration. This mixture was incubated at room temperature for 60 minutes and then 5 ul of 400 nM XBP1 wildtype or mutant RNA probe was added. Plates were then read over 30 minutes in kinetic mode (485/515 nm).
Target sequence in this assay (O75460 468-977 limits assumed): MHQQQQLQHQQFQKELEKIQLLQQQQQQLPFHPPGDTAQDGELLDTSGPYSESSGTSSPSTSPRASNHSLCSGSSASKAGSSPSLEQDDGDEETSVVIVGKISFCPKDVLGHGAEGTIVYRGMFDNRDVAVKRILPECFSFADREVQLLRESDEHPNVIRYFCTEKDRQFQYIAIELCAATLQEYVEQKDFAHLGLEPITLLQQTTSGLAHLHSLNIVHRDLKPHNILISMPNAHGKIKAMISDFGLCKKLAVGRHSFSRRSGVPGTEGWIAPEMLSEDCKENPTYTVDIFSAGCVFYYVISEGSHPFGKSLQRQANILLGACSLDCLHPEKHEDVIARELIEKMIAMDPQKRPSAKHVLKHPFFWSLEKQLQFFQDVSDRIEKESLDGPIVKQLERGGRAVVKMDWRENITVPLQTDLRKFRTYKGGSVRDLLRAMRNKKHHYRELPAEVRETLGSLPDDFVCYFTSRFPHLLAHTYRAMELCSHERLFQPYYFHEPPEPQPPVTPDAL

[2] = biological target: T1, IRE1α; assay: IRE1α Endoribonuclease Nanoluciferase Assay (XBP1 luciferase reporter, 293T cells); assay type: cell-based; design: endogenous in cells; host or cells: 293T cells; details: 293T cells transfected with XBP1 luciferase reporter plasmid, stressors +/- inhibitors
Protocol: Compounds disclosed herein were assessed for disruption of IRE-1 signaling using a IRE1α Endoribonuclease Nanoluciferase Assay. Briefly, 2.5×10^6 293T cells were seeded in a 10 cm^2 tissue culture plate. About 24 hours later, the cells were transfected with Effectene. In a 15 mL Tube, the following was added: 2 μg XBP1 luciferase reporter plasmid (PGK-Luc2-P2A-XBP1u-Nanoluciferase-PEST); 300 μl EC buffer; and 16 μl Enhancer, followed by incubation at room temp for 5 minutes. Next, 60 μl Effectene (Qiagen 301427) was added, followed by incubation at room temperature for 10 minutes. 2.6 mL cDMEM media was added. Old media was aspirated from the cells, followed by addition of 7 mL fresh media. Full transfection mixture was added dropwise to cells. Cells were incubated for 6 hours, followed by tripsinization, centrifugation and resuspension in 11 mL media. 100 uL of cells were plated per a well in a 96 well plate. A day later, stressors of choice +/− inhibitors were added. To harvest, media was aspirated from cells completely, then 50 uL 1× passive lysis buffer (Promega: E1941) was added per well and put on shaker (300 rpm) for 30 minutes at room temperature. Cells were centrifuged, and 15 uL sample per well was added to a new, opaque white 384 well plate (Corning 3570). 15 uL OneGlo (nanoluciferase kit, Promega N1630) was added. Plates were spun down, placed on shaker (300 rpm) for 10 minutes. Plates were read on luminometer, 1000 ms integration time per well. 15 uL Stop and Glo (nanoluciferase kit) was added. Plates were spun down, placed on shaker (300 rpm) for 10 minutes. Plates were read on luminometer, 1000 ms second integration time per well. Recordings are provided below in Table 6.
Target sequence in this assay (O75460 19-977): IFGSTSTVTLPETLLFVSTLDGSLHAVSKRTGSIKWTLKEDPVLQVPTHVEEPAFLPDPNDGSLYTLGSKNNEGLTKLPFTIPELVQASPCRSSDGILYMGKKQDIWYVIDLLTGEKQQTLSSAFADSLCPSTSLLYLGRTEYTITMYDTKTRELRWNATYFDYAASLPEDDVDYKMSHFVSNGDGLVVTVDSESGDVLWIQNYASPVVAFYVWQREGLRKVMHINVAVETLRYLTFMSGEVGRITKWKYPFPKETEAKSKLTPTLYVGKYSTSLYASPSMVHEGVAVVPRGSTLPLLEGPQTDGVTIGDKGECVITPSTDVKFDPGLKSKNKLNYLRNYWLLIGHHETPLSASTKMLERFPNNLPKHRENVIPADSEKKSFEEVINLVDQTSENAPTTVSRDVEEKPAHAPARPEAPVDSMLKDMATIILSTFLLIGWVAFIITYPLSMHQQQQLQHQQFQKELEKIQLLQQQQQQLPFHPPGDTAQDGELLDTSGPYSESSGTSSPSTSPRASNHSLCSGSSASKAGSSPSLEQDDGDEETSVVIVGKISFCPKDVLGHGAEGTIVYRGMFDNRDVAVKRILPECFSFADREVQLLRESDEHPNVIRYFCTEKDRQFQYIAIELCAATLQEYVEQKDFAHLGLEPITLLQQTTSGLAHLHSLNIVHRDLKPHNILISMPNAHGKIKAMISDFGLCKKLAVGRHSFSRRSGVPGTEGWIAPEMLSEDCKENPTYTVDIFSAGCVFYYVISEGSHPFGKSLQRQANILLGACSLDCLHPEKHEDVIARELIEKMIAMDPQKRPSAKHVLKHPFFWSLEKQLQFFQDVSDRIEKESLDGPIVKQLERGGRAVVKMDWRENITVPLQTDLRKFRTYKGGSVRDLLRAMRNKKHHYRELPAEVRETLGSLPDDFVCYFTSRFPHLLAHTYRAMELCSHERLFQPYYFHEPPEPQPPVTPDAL

SMILES	EC50 [1]	EC50 [2]
CN1CCN(Cc2ccc(NC(=O)Nc3cc(-c4ccc5nc(NC6CCNCC6)ncc5c4)n(C)n3)cc2C(F)(F)F)CC1 [2; TFA]	≤ 0.005 µM	> 0.1 µM
CN1CCN(Cc2ccc(NC(=O)Nc3cc(-c4ccc5cc(NC6CCCCC6)ncc5c4)n(C)n3)cc2C(F)(F)F)CC1 [4; TFA]	> 0.1 µM	
CN1CCN(Cc2ccc(NC(=O)Nc3cc(-c4ccc5nc(NC6CCCCC6)ncc5c4)n(C)n3)cc2C(F)(F)F)CC1 [Compound 5, 1-(5-(2-(cyclohexylamino)quinazolin-6-yl)-1-methyl-1H-pyrazol-3-yl)-3-(4-((4-methylpiperazin-1-yl)methyl)-3-(trifluoromethyl)phenyl)urea]	> 0.1 µM	> 0.1 µM
Cc1cc(-c2cc(NC(=O)Nc3ccc(CN4CCN(C)CC4)c(C(F)(F)F)c3)nn2C)cc2cnc(N)nc12 [Compound 12, 1-(5-(2-amino-8-methylquinazolin-6-yl)-1-methyl-1H-pyrazol-3-yl)-3-(4-((4-methylpiperazin-1-yl)methyl)-3-(trifluoromethyl)phenyl)urea]	0.005 to 0.05 µM	> 0.1 µM
CCc1cc(-c2cc(NC(=O)Nc3ccc(CN4CCN(C)CC4)c(C(F)(F)F)c3)nn2C)cc2cnc(N[C@H]3CC[C@H](N)CC3)nc12 [Compound 31, 1-(5-(2-(((1r,4r)-4-aminocyclohexyl)amino)-8-ethylquinazolin-6-yl)-1-methyl-1H-pyrazol-3-yl)-3-(4-((4-methylpiperazin-1-yl)methyl)-3-(trifluoromethyl)phenyl)urea]	≤ 0.005 µM	≤ 0.005 µM
